Source: patent publication US20140051875A1, “CRYSTALLINE FORM OF MAXACALCITOL” (FORMOSA LABORATORIES INC., priority 2012, published 2014)
Like-named read-outs stand apart in the source and are kept apart here.

Columns and labels:
[1] = Storage stability of maxacalcitol hydrate under an inert gas atmosphere; assay type: physicochemical; conditions: under an inert gas atmosphere at 25° C.
Description: In a preferred embodiment, the maxacalcitol hydrate is stored in an amber vial.

[2] = cited from earlier work

Row | Structure (SMILES) | stability to storage: no degradation for (time) [1] | stability: decomposed after storage (time) ([2]; amber vial under inert gas environment at 25° C.) [weeks] | stability: stable for (storage time) ([2]; amber vial under inert gas environment at −20° C.) [months] | stability: stable for (storage time) ([2]; amber vial under inert gas environment at −80° C.) [months] | decomposition on storage ([2]; at 25° C., according to the JP interview form)
1 | C=C1/C(=C\C=C2/CCC[C@]3(C)[C@@H]([C@H](C)OCCC(C)(C)O)CC[C@@H]23)C[C@@H](O)C[C@@H]1O [maxacalcitol hydrate] | at least 32 days | – | – | – | –
2 | C=C1/C(=C\C=C2/CCC[C@]3(C)[C@@H]([C@H](C)OCCC(C)(C)O)CC[C@@H]23)C[C@@H](O)C[C@@H]1O [maxacalcitol, (+)-(5Z,7E,20S)-20-(3-Hydroxy-3-methylbutoxy)-9,10-secopregna-5,7,10(19)-triene-1α,3β-diol] | – | 4 | 6 | 36 | considerable degree of decomposition
